This passage reports inhibition and Ki results from patent US6916798B2, “Inhibitors of GSK-3 and uses thereof” (Vertex Pharmaceuticals Incorporated, priority 2001, dated 2005).

A word on the inhibition: it is the change of the read-out against control, counted positive when it falls. By Ki is commonly meant the dissociation constant of the complex between target and ligand, obtained from inhibition or displacement.

A value given as a limit tells only on which side of the number the result lay.

What all share (assay type): biochemical
Assay [1] deals with T1, CDK-2/Cyclin A (Homo sapiens, UniProt P24941). Put plainly: Inhibition of CDK-2, standard coupled enzyme assay. As to conditions: for inhibition at 2 µM: 2 μM compound; for inhibition at 10 µM: read-out: CDK-2 % inhibition @ 10 μM, 10 μM compound.
Assay [2] addresses T2, GSK-3β (AA 1-420) (Homo sapiens, UniProt P49841).
T2 construct: GSK-3β (AA 1-420)
As to the kind of experiment: Ki determination for the inhibition of GSK-3, standard coupled enzyme system. As to conditions: 20 μM ATP, 300 μM peptide, 20 nM GSK-3β, 30° C.; read-out: Ki values for GSK-3. On the procedure: Final substrate concentrations in the assay were 20 μM ATP (Sigma Chemicals, St Louis, Mo.) and 300 μM peptide (HSSPHQS(PO3H2)EDEEE, American Peptide, Sunnyvale, Calif.). Reactions were carried out at 30° C. and 20 nM GSK-3β. Final concentrations of the components of the coupled enzyme system were 2.5 mM phosphoenolpyruvate, 300 μM NADH, 30 μg/ml pyruvate kinase and 10 μg/ml lactate dehydrogenase.
An assay stock buffer solution was prepared containing all of the reagents listed above with the exception of ATP and the test compound of interest. The assay stock buffer solution (175 μl) was incubated in a 96 well plate with 5 μl of the test compound of interest at final concentrations spanning 0.002 μM to 30 μM at 30 ° C. for 10 min. […] The reaction was initiated by the addition of 20 μl of ATP (final concentration 20 μM). Rates of reaction were obtained using a Molecular Devices Spectramax plate reader (Sunnyvale, Calif.) over 10 min at 30° C. The Ki values were determined from the rate data as a function of inhibitor concentration.

Assay [3] has as its target T3, Aurora-2 (Homo sapiens, UniProt O14965).
T3 sequence (O14965 1-403): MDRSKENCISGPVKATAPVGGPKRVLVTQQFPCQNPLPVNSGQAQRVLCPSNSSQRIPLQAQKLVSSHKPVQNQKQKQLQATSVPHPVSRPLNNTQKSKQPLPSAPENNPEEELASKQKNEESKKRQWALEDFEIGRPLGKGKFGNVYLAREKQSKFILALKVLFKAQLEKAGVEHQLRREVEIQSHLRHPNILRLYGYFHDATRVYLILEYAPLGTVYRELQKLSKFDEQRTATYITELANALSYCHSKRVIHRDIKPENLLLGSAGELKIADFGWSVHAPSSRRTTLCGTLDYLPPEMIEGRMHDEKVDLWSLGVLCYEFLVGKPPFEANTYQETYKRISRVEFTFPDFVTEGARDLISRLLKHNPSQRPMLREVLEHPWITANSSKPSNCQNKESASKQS
Put plainly: Ki determination for the inhibition of Aurora-2, standard coupled enzyme assay. As to conditions: 70 nM Aurora-2, 800 μM peptide LRRASLG, 30° C. The protocol: Compounds were screened in the following manner for their ability to inhibit Aurora-2 using a standard coupled enzyme assay (Fox et al. (1998) Protein Sci. 7, 2249).
(§1) To an assay stock buffer solution containing 0.1M HEPES 7.5, 10 mM MgCl2, 1 mM DTT, 25 mM NaCl, 2.5 mM phosphoenolpyruvate, […], 30 mg/ml pyruvate kinase, 10 mg/ml lactate dehydrogenase, 40 mM ATP, and 800 μM peptide (LRRASLG, American Peptide, Sunnyvale, Calif.) was added a DMSO solution of a compound of the present invention to a final concentration of 30 μM. The resulting mixture was incubated at 30° C. for 10 min. The reaction was initiated by the addition of 10 μL of Aurora-2 stock solution to give a final concentration of 70 nM in the assay. The rates of reaction were obtained by monitoring absorbance at 340 nm over a 5 minute read time at 30° C. using a BioRad Ultramark plate reader (Hercules, Calif.). The Ki values were determined from the rate data as a function of inhibitor concentration.

For assay [4], the target named is T1, CDK-2/Cyclin A. Put plainly: Inhibition of CDK-2, standard coupled enzyme assay. Particulars: 25 nM CDK-2/Cyclin A, 100 μM peptide, 30° C. The protocol: Compounds were screened in the following manner for their ability to inhibit CDK-2 using a standard coupled enzyme assay (Fox et al (1998) Protein Sci 7, 2249).
as §1, with “[…], […]” for “dehydrogenase, 40”, “and 100” for “and 800”, “peptide ([…],” for “peptide (LRRASLG,”, “of CDK-2/Cyclin A” for “of Aurora-2”, “of 25” for “of 70”, “a 5-minute” for “a 5 minute”

T2 sequence (P49841 whole entry, the tested form may be a part): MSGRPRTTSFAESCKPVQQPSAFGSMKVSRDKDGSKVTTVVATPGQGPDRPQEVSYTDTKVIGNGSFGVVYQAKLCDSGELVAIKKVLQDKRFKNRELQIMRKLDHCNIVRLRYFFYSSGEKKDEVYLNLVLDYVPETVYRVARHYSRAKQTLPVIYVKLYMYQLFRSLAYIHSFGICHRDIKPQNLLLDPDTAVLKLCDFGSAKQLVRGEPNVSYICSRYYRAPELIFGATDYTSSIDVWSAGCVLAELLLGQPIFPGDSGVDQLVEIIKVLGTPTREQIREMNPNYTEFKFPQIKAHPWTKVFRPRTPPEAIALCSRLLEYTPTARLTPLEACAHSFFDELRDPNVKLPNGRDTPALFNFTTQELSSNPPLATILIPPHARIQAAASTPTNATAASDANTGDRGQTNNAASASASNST

As for `COc1ccc(C2=NNC(=O)C2=NNc2ccc(Cl)cc2)cc1OC` [Compound 44], in assay [1], the inhibition at 2 µM was determined as 87% and the inhibition at 10 µM came to 94%. For the same molecule, the Ki in assay [2] was less than 0.1 µM.

For the molecule `COc1ccc(NN=C2C(=O)NN=C2c2ccc(OC)cc2)cc1` [Compound 46], in assay [1], the inhibition at 2 µM is 82% and the inhibition at 10 µM is 95%. Besides, in assay [2], the Ki is less than 0.1 µM. In assay [3], this molecule came in with an inhibition constant (Ki) of 0.1 to 1 µM.

On to `COc1ccc(C2=NNC(=O)C2=NNc2ccc(OC)c(-c3cccnc3)c2)cc1OC` [Compound 106, 5-(3,4-Dimethoxy-phenyl)-4-[(4-methoxy-3-pyridin-3-yl-phenyl)-hydrazono]-2,4-dihydro-pyrazol-3-one], for which the Ki in assay [4] was 1 to 20 µM; in assay [2] it was less than 0.1 µM.

As to `CCOc1ccc(C2=NNC(=O)C2=NNc2ccc(N(CC)CC)cc2)cc1OCC` [Compound 114, 5-(3,4-Diethoxy-phenyl)-4-[(4-diethylamino-phenyl)-hydrazono]-2,4-dihydro-pyrazol-3-one], the Ki in assay [4] was 1 to 20 µM; in assay [3], less than 0.1 µM.

For the molecule `CCOc1ccc(C2=NNC(=O)C2=NNc2ccc(N(CC)CCO)cc2)cc1OCC` [Compound 115, 5-(3,4-Diethoxy-phenyl)-4-({4-[ethyl-(2-hydroxy-ethyl)-amino]-phenyl}-hydrazono)-2,4-dihydro-pyrazol-3-one], the Ki was 1 to 20 µM in assay [4] and less than 0.1 µM in assay [3].

As for `CCOc1ccc(C2=NNC(=O)C2=NNc2ccc(N3CCOCC3)cc2)cc1OCC` [Compound 116, 5-(3,4-Diethoxy-phenyl)-4-[(4-morpholin-4-yl-phenyl)-hydrazono]-2,4-dihydro-pyrazol-3-one], the Ki is 1 to 20 µM in assay [4] and less than 0.1 µM in assay [3].

Turning to `CCN(CC)c1ccc(NN=C2C(=O)NN=C2c2ccc(OCc3ccccc3)c(OC)c2)cc1` [Compound 117, 5-(4-Benzyloxy-3-methoxy-phenyl)-4-[(4-diethylamino-phenyl)-hydrazono]-2,4-dihydro-pyrazol-3-one], the inhibitory constant (Ki) was 1 to 20 µM in assay [4] and 0.1 to 1 µM in assay [3].

`CCN(CCO)c1ccc(NN=C2C(=O)NN=C2c2ccc(OCc3ccccc3)c(OC)c2)cc1` [Compound 118, 5-(4-Benzyloxy-3-methoxy-phenyl)-4-({4-[ethyl-(2-hydroxy-ethyl)-amino]-phenyl}-hydrazono)-2,4-dihydro-pyrazol-3-one]: the values for the Ki in assay [4] and in assay [3] were 1 to 20 µM and less than 0.1 µM, respectively.

As for `COc1cc(C2=NNC(=O)C2=NNc2ccc(N3CCOCC3)cc2)ccc1OCc1ccccc1` [Compound 119, 5-(4-Benzyloxy-3-methoxy-phenyl)-4-[(4-morpholin-4-yl-phenyl)-hydrazono]-2,4-dihydro-pyrazol-3-one], the Ki was 1 to 20 µM in assay [4] and less than 0.1 µM in assay [3].

`COc1ccc(C2=NNC(=O)C2=NNc2ccc(OCCCN(C)CCO)c(-c3ccccc3)c2)cc1OC` [Compound 120, 5-(3,4-dimethoxy-phenyl)-4-[(6-{3-[(2-hydroxy-ethyl)-methyl-amino]-propoxy}-biphenyl-3-yl)-hydrazono]-2,4-dihydro-pyrazol-3-one]: the figures for the Ki in assay [4] and in assay [2] were 1 to 20 µM and less than 0.1 µM, respectively.

With `COc1ccc(C2=NNC(=O)C2=NNc2ccc(OCCCN(C)C)c(-c3ccccc3)c2)cc1OC` [Compound 121, 5-(3,4-Dimethoxy-phenyl)-4-{[6-(3-dimethylamino-propoxy)-biphenyl-3-yl]-hydrazono}-2,4-dihydro-pyrazol-3-one], the Ki in assay [4] is 1 to 20 µM; in assay [2], less than 0.1 µM.
